PubChem BioAssay (NCI)
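GI50 is the concentration that inhibits growth by half. TGI is the concentration that stops growth completely.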

Legend:
Experiment in all cases: inhibition of tumour cell growth, NCI panel, 384-well format
NCI/ADR-RES ovarian = system: NCI/ADR-RES ovarian
SF-539 CNS = system: SF-539 CNS
EKVX NSCLC = system: EKVX NSCLC
786-0 renal = system: 786-0 renal
KM12 colon = system: KM12 colon
K-562 leukemia = system: K-562 leukemia
MDA-MB-435 melanoma = system: MDA-MB-435 melanoma
MDA-MB-468 breast = system: MDA-MB-468 breast
LOX IMVI melanoma = system: LOX IMVI melanoma
HL-60(TB) leukemia = system: HL-60(TB) leukemia
M14 melanoma = system: M14 melanoma
NCI-H522 lung = system: NCI-H522 lung
SK-MEL-28 melanoma = system: SK-MEL-28 melanoma
MOLT-4 leukemia = system: MOLT-4 leukemia
RPMI-8226 leukemia = system: RPMI-8226 leukemia
CAKI-1 renal = system: CAKI-1 renal
DU-145 prostate = system: DU-145 prostate
SF-295 CNS = system: SF-295 CNS
COLO 205 colon = system: COLO 205 colon
NCI-H23 lung = system: NCI-H23 lung
HCC-2998 colon = system: HCC-2998 colon
MDA-MB-231 breast = system: MDA-MB-231 breast
ACHN renal = system: ACHN renal
OVCAR-5 ovarian = system: OVCAR-5 ovarian
OVCAR-3 ovarian = system: OVCAR-3 ovarian
IGROV1 ovarian = system: IGROV1 ovarian
T-47D breast = system: T-47D breast
HS 578T breast = system: HS 578T breast
HOP-92 NSCLC = system: HOP-92 NSCLC
HOP-62 NSCLC = system: HOP-62 NSCLC
TK-10 renal = system: TK-10 renal
A498 renal = system: A498 renal
SF-268 CNS = system: SF-268 CNS
UO-31 renal = system: UO-31 renal
UACC-62 melanoma = system: UACC-62 melanoma
HCT-15 colon = system: HCT-15 colon
SNB-75 CNS = system: SNB-75 CNS
CCRF-CEM leukemia = system: CCRF-CEM leukemia
SK-MEL-2 melanoma = system: SK-MEL-2 melanoma
MCF7 breast = system: MCF7 breast
SN12C renal = system: SN12C renal
NCI-H460 NSCLC = system: NCI-H460 NSCLC
RXF 393 renal = system: RXF 393 renal
NCI-H322M lung = system: NCI-H322M lung
PC-3 prostate = system: PC-3 prostate
HCT-116 colon = system: HCT-116 colon
NCI-H226 lung = system: NCI-H226 lung
OVCAR-8 ovarian = system: OVCAR-8 ovarian
BT-549 breast = system: BT-549 breast
UACC-257 melanoma = system: UACC-257 melanoma
U251 glioblastoma = system: U251 glioblastoma
SK-MEL-5 melanoma = system: SK-MEL-5 melanoma
SNB-19 CNS = system: SNB-19 CNS
A549 NSCLC = system: A549 NSCLC
OVCAR-4 ovarian = system: OVCAR-4 ovarian
HT29 colon = system: HT29 colon
SW-620 colon = system: SW-620 colon

Q: What does the source list for Nc1cc(C(F)F)c(-c2nc(N3[C@@H]4CC[C@H]3COC4)nc(N3[C@@H]4CC[C@H]3COC4)n2)cn1?
A: GI50 (NCI/ADR-RES ovarian): 921 nM; TGI (NCI/ADR-RES ovarian): > 100000 nM; GI50 (SF-539 CNS): 451 nM; TGI (SF-539 CNS): > 100000 nM; GI50 (EKVX NSCLC): 345 nM; TGI (EKVX NSCLC): 12000 nM; GI50 ([…]-0 renal): 639 nM; TGI (786-0 renal): > 100000 nM; GI50 (KM12 colon): 320 nM; TGI (KM12 colon): > 100000 nM; GI50 (K-562 leukemia): 523 nM; TGI (K-562 leukemia): > 100000 nM; GI50 (MDA-MB-435 melanoma): 499 nM; TGI (MDA-MB-435 melanoma): 32200 nM; GI50 (MDA-MB-468 breast): 201 nM; TGI (MDA-MB-468 breast): 980 nM; GI50 (LOX IMVI melanoma): 464 nM; TGI (LOX IMVI melanoma): > 100000 nM; GI50 (HL-60(TB) leukemia): 2530 nM; TGI (HL-60(TB) leukemia): > 100000 nM; GI50 (M14 melanoma): 358 nM; TGI (M14 melanoma): > 100000 nM; GI50 (NCI-H522 lung): 183 nM; TGI (NCI-H522 lung): 7620 nM; GI50 (SK-MEL-28 melanoma): 446 nM; TGI (SK-MEL-28 melanoma): > 100000 nM; GI50 (MOLT-4 leukemia): 158 nM; TGI (MOLT-4 leukemia): 9690 nM; GI50 (RPMI-8226 leukemia): 28.7 nM; TGI (RPMI-8226 leukemia): 198 nM; GI50 (CAKI-1 renal): 311 nM; TGI (CAKI-1 renal): 3670 nM; GI50 (DU-145 prostate): 525 nM; TGI (DU-145 prostate): > 100000 nM; GI50 (SF-295 CNS): 215 nM; TGI (SF-295 CNS): 1930 nM; GI50 (COLO 205 colon): 368 nM; TGI (COLO 205 colon): > 100000 nM; GI50 (NCI-H23 lung): 2180 nM; TGI (NCI-H23 lung): > 100000 nM; GI50 (HCC-2998 colon): 407 nM; TGI (HCC-2998 colon): > 100000 nM; GI50 (MDA-MB-231 breast): 338 nM; TGI (MDA-MB-231 breast): > 100000 nM; GI50 (ACHN renal): 426 nM; TGI (ACHN renal): > 100000 nM; GI50 (OVCAR-5 ovarian): 718 nM; TGI (OVCAR-5 ovarian): > 100000 nM; GI50 (OVCAR-3 ovarian): 349 nM; TGI (OVCAR-3 ovarian): > 100000 nM; GI50 (IGROV1 ovarian): 188 nM; TGI (IGROV1 ovarian): 980 nM; GI50 (T-47D breast): 104 nM; TGI (T-47D breast): 509 nM; GI50 (HS 578T breast): 138 nM; TGI (HS 578T breast): 687 nM; GI50 (HOP-92 NSCLC): 560 nM; TGI (HOP-92 NSCLC): > 100000 nM; GI50 (HOP-62 NSCLC): 497 nM; TGI (HOP-62 NSCLC): 7530 nM; GI50 (TK-10 renal): 384 nM; TGI (TK-10 renal): 8800 nM; GI50 (A498 renal): 89.9 nM; TGI (A498 renal): 3630 nM; GI50 (SF-268 CNS): 1120 nM; TGI (SF-268 CNS): > 100000 nM; GI50 (UO-31 renal): 216 nM; TGI (UO-31 renal): 796 nM; GI50 (UACC-62 melanoma): 389 nM; TGI (UACC-62 melanoma): 5930 nM; GI50 (HCT-15 colon): 419 nM; TGI (HCT-15 colon): > 100000 nM; GI50 (SNB-75 CNS): 170 nM; TGI (SNB-75 CNS): 873 nM; GI50 (CCRF-CEM leukemia): 301 nM; TGI (CCRF-CEM leukemia): 38000 nM; GI50 (SK-MEL-2 melanoma): 2120 nM; TGI (SK-MEL-2 melanoma): 9780 nM; GI50 (MCF7 breast): 143 nM; TGI (MCF7 breast): > 100000 nM; GI50 (SN12C renal): 347 nM; TGI (SN12C renal): > 100000 nM; GI50 (NCI-H460 NSCLC): 105 nM; TGI (NCI-H460 NSCLC): > 100000 nM; GI50 (RXF 393 renal): 198 nM; TGI (RXF 393 renal): 1580 nM; GI50 (NCI-H322M lung): 398 nM; TGI (NCI-H322M lung): > 100000 nM; GI50 (PC-3 prostate): 253 nM; TGI (PC-3 prostate): > 100000 nM; GI50 (HCT-116 colon): 1440 nM; TGI (HCT-116 colon): > 100000 nM; GI50 (NCI-H226 lung): 196 nM; TGI (NCI-H226 lung): 2840 nM; GI50 (OVCAR-8 ovarian): 545 nM; TGI (OVCAR-8 ovarian): > 100000 nM; GI50 (BT-549 breast): 261 nM; TGI (BT-549 breast): 2640 nM; GI50 (UACC-257 melanoma): 1500 nM; TGI (UACC-257 melanoma): > 100000 nM; GI50 (U251 glioblastoma): 769 nM; TGI (U251 glioblastoma): > 100000 nM; GI50 (SK-MEL-5 melanoma): 251 nM; TGI (SK-MEL-5 melanoma): 1530 nM; GI50 (SNB-19 CNS): 3030 nM; TGI (SNB-19 CNS): > 100000 nM; GI50 (A549 NSCLC): 338 nM; TGI (A549 NSCLC): > 100000 nM; GI50 (OVCAR-4 ovarian): 178 nM; TGI (OVCAR-4 ovarian): 2210 nM; GI50 (HT29 colon): 4210 nM; TGI (HT29 colon): > 100000 nM; GI50 (SW-620 colon): 1510 nM; TGI (SW-620 colon): > 100000 nM
